Results published in ChEMBL document CHEMBL1201862, “PubChem BioAssay data set” (2004).
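Cultured in 96-well plates, cells were exposed to test compound for 48 hours across five concentrations. Abbreviation: GI50, concentration required for 50% inhibition of growth.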 The source made the active and inactive calls. No stated cut-off is given here; in the data, active = GI50 up to about 1.1 µM and inactive = higher. Where a SMILES comes first, the peptide text is derived from it. [ ]: non-standard residue; d: D form. The star is where a group is joined. ξ: configuration not given here. NMeF = CN[CH](Cc1ccccc1)C(=O)O; ξNMe2Val = CC(C)C(C(=O)*)N(C)C; NMeV = CN[CH](C(=O)O)C(C)C; OtBu = CC(C)(C)O*

How the values were obtained:
Assay in all cases: growth of human tumour cells (NCI), 48 h
[1] = tested on: RXF 631
[2] = tested on: SNB-78
[3] = tested on: DMS-273
[4] = tested on: M19-MEL
[5] = tested on: HOP-18
[6] = tested on: KM-20L2
[7] = tested on: XF498

Measured: GI50

COC(=O)C1Cc2c(n(Cc3ccccc3)c3ccccc23)C(CCC(=O)O)N1C(C)C (stereo not given)
inactive: [1] > 100 µM | [2] > 100 µM | [3] > 100 µM | [4] > 100 µM | [5] > 100 µM | [6] > 100 µM

COc1cc2cnc3c4ccccc4ccc3c2cc1OC
inactive: [7] > 100 µM | [2] > 100 µM | [4] > 100 µM | [6] > 100 µM

CNC(=O)NCCN1N=C(C)/C(=C\c2ccccc2)CC1=O
inactive: [7] > 100 µM | [1] > 100 µM | [2] > 100 µM | [3] > 100 µM | [4] > 100 µM

NC(=O)N/N=C(\CC1OC(=O)c2ccccc21)c1ccc([N+](=O)[O-])cc1 (stereo not given)
inactive: [7] 26.9 µM | [3] 28.1 µM | [4] 26.5 µM | [6] 29.2 µM

O=c1cc(-c2ccccc2)oc2cc(OCCCCCCCCCCOc3ccc4c(=O)cc(-c5ccccc5)oc4c3)ccc12
inactive: [7] > 100 µM | [1] > 100 µM | [2] > 100 µM | [3] > 100 µM | [4] > 100 µM | [5] > 100 µM | [6] > 100 µM

CCn1c(=O)c2ccccc2n2c(=O)c3cc4ccccc4cc3nc12
inactive: [7] 15.8 µM | [2] 39.8 µM | [3] > 100 µM | [4] > 100 µM | [6] > 100 µM

CN(C)/C=N\c1ccn(CCO)c(=O)n1
inactive: [1] > 100 µM | [2] > 100 µM | [3] > 100 µM | [4] > 100 µM | [5] > 100 µM | [6] > 100 µM

CC(C)C(C(=O)N(C)C(Cc1ccccc1)C(=O)N(C)C(C(=O)N(C)C(C(=O)N1CCCC1C(=O)OC(C)(C)C)C(C)C)C(C)C)N(C)C (stereo not given) (ξNMe2Val-[NMeF][NMeV][NMeV]P-OtBu; configuration not given here)
inactive: [7] 30.8 µM | [3] 21 µM | [4] 78.3 µM | [6] 20.8 µM

CCOC(=O)C1(C(=O)OCC)CC=C(C)CC12C(=O)Nc1ccccc12 (stereo not given)
inactive: [7] > 100 µM | [3] > 100 µM | [4] > 100 µM | [5] > 100 µM | [6] > 100 µM

CC(=O)NC1=C(NCC(C)C)C(=O)c2ccccc2C1=O
inactive: [7] 14 µM | [2] 31.1 µM | [3] 14.4 µM | [4] 18.7 µM | [5] 12.8 µM | [6] 21.2 µM

C[C@]12CC(C=O)C(=O)C(O)=C1CC[C@@H]1C2CC[C@@]2(C)C1CC[C@]2(C)O (stereo not given in full)
inactive: [7] 18.2 µM | [1] 25.6 µM | [2] 16.5 µM | [3] 21.6 µM | [4] 20.1 µM | [6] 22 µM

CC(C)N1CCC2(CC1)NNc1ncccc1-n1cccc12
inactive: [7] > 100 µM | [2] > 100 µM | [3] > 100 µM | [4] > 100 µM | [5] > 100 µM

O=C1C2[C@@H](C(=O)N1c1ccc(Br)cc1)C13C(=CC2([N+](=O)[O-])[C@@H]2C(=O)N(c4ccc(Br)cc4)C(=O)[C@@H]21)c1ccccc1N3c1ccccc1 (stereo not given in full)
inactive: [7] 39.3 µM | [1] > 100 µM | [2] > 100 µM | [4] > 100 µM | [5] > 100 µM

COc1ccc(/C(Cl)=C(\c2ccc(OCCN(C)C)cc2)c2ccc(OC(=O)C(C)(C)C)cc2)cc1
inactive: [7] 11.5 µM | [2] 16.1 µM | [3] 5.07 µM | [4] 13.7 µM | [6] 3.41 µM

C/C(=C1/CCC/C(=C(/C)c2ccccc2)C1=O)c1ccccc1
inactive: [7] 30.6 µM | [2] 36.5 µM | [3] 32 µM | [4] 24.9 µM | [5] > 100 µM | [6] 40.5 µM

O=S1(=O)COc2ccccc2-c2ncncc21
inactive: [1] > 100 µM | [2] > 100 µM | [4] > 100 µM | [5] > 100 µM | [6] > 100 µM

COC(=O)C12C3C4C1C1C2C3C41I (stereo not given)
inactive: [7] > 100 µM | [1] > 100 µM | [2] > 100 µM | [4] > 100 µM | [5] > 100 µM | [6] > 100 µM

Cc1ccccc1-c1cc(=O)c2cc(C)c(C)c(C(=O)O)c2o1
inactive: [7] 71.1 µM | [1] > 100 µM | [2] > 100 µM | [3] > 100 µM | [4] > 100 µM | [5] > 100 µM | [6] > 100 µM

CCCCCCCCCCC(O)[C@H]1CCC(C2CC[C@H]([C@H](O)CCCCCCCCCCC(O)CC3=CC(C)OC3=O)O2)O1 (stereo not given in full)
inactive: [1] 2.01 µM | [2] 2.32 µM | [3] 1.6 µM | [4] 2.22 µM | [6] 3.33 µM

Oc1nnc(CNc2ccc(Cl)cc2Cl)c2ccccc12
inactive: [1] > 100 µM | [2] 62.7 µM | [3] 19.5 µM | [4] 33 µM | [5] 23.1 µM | [6] 25.6 µM

CC[C@H]1CNC(=O)CC1CC(=O)OC (stereo not given in full)
inactive: [1] > 100 µM | [2] > 100 µM | [3] > 100 µM

CCC(Oc1ccc(OC)c2c1C(=O)CCC2)C(=O)O (stereo not given)
inactive: [7] > 100 µM | [2] > 100 µM | [3] > 100 µM | [4] > 100 µM
